For this assay, the target named is T1, Vitamin D3 receptor (Homo sapiens, UniProt P11473).
T1 sequence (P11473 whole entry): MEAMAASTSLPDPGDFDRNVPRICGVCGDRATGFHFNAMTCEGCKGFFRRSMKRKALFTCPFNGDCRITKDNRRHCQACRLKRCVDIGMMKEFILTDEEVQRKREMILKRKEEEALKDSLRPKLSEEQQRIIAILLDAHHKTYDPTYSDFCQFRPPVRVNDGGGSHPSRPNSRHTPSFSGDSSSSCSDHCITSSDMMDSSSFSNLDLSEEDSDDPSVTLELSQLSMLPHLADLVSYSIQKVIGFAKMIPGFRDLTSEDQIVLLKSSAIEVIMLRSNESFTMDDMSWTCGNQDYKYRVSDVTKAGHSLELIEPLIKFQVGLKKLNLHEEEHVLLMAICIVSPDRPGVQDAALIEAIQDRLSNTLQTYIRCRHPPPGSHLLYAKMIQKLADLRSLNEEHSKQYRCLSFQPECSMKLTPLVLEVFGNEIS
Kind of assay: Inhibition of human VDR-coactivator interaction.

As usually defined, the pIC50 is the IC50 on a negative log10 scale, so that one unit is a factor of ten. Lower therefore signals a large IC50.

pIC50: −log10 of the molar value. Starred links: 1 amine or outer side, 2 acyl side, 3 side chain; linkers in the order of their positions; H or OH if unused. Positions of bridges follow the written chain, without caps; N, C: chain ends. Non-standard residues stand in square brackets, D forms with d. Residues, ends and D or L forms follow the SMILES beside them. hSer = N[C@@H](CCO)C(=O)O; X1 = C(CC[*:2])C[*:1]; Aib = CC(C)(N)C(=O)O

`CC(C)C[C@@H]1NC(=O)[C@H](CC(C)C)NC(=O)C(C)(C)NC(=O)[C@H](NC(=O)[C@H](CC(C)C)NC(=O)[C@@H](N)CC(C)C)COCCCCOC[C@@H](C(=O)O)NC1=O` had a pIC50 of 3.21.
Regarding `CC(C)C[C@@H]1NC(=O)[C@H](CC(C)C)NC(=O)C(C)(C)NC(=O)[C@H](NC(=O)[C@H](CC(C)C)NC(=O)[C@@H](N)CC(C)C)COCCCCOC[C@H](C(=O)O)NC1=O`, the pIC50 is 3.22.
Take `CC(C)C[C@@H]1NC(=O)[C@H](CC(C)C)NC(=O)C(C)(C)NC(=O)[C@@H](NC(=O)[C@H](CC(C)C)NC(=O)[C@@H](N)CC(C)C)COCCCCOC[C@H](C(=O)O)NC1=O`: the pIC50 was 3.37.
The result for `CC(C)C[C@@H]1NC(=O)[C@H](CC(C)C)NC(=O)C(C)(C)NC(=O)[C@@H](NC(=O)[C@H](CC(C)C)NC(=O)[C@@H](N)CC(C)C)COCCCCOC[C@@H](C(=O)O)NC1=O` reads 3.21.
`CC(C)C[C@@H]1NC(=O)[C@H](CC(C)C)NC(=O)C(C)(C)NC(=O)[C@@H](NC(=O)[C@H](CC(C)C)NC(=O)[C@@H](N)CC(C)C)CCOCCCCOC[C@@H](C(=O)O)NC1=O` (H-LL[hSer][Aib]LLS-OH; linker 3-7 via X1) showed a pIC50 of 3.28.
For `CC(C)C[C@@H]1NC(=O)[C@H](CC(C)C)NC(=O)C(C)(C)NC(=O)[C@@H](NC(=O)[C@H](CC(C)C)NC(=O)[C@@H](N)CC(C)C)CCOCCCCOCC[C@@H](C(=O)O)NC1=O` (H-LL[hSer][Aib]LL[hSer]-OH; linker 3-7 via X1) the value was 3.66; for `CC(C)C[C@@H]1NC(=O)[C@H](CC(C)C)NC(=O)C(C)(C)NC(=O)[C@@H](NC(=O)[C@H](CC(C)C)NC(=O)[C@@H](N)CC(C)C)CCOCC(O)C(O)COCC[C@@H](C(=O)O)NC1=O` (mixture of isomers), 5.49.

The record behind these values is ChEMBL document CHEMBL2406944, “Development of stapled short helical peptides capable of inhibiting vitamin D receptor (VDR)-coactivator interactions” (Bioorg Med Chem Lett, 2013).
